Consider 1 molecule from paper PMC6104039 (Nature Communications, 2018).

The structures appear in SMILES notation. “And” between values parts separate entries of the source, which are not always exact repeats. Equal values may be shown once.

The test system of this test is HEK293 cells. Put plainly: Endogenous ceramide, HexCer and SM levels in cells treated 24 h, targeted LC-MS/MS. Also noted: Cer 18:1/24:0 content in HEK293 cells / Cer 18:1/24:1 content in HEK293 cells / HexCer 18:1/16:0 content in HEK293 cells / HexCer 18:1/18:0 content in HEK293 cells / HexCer 18:1/20:0 content in HEK293 cells / HexCer 18:1/22:0 content in HEK293 cells / Cer 18:1/16:0 content in HEK293 cells / Cer 18:1/18:0 content in HEK293 cells / Cer 18:1/20:0 content in HEK293 cells / Cer 18:1/22:0 content in HEK293 cells: unit not given here. It counts as cell-based. As to the method: Lipids were then extracted using MTBE/methanol/water as described above.
HEK293 cell culture experiment: Levels of each lipid in P053-treated HEK293 cells were normalised to the mean of the vehicle control group, and each concentration was compared to the control using ANOVA with Dunnett’s post-test. P values were adjusted for multiple comparisons in GraphPad PRISM.
Supplementary Figure 1. Ceramide, SM, and HexCer levels in HEK293 cells treated with
P053. Absolute lipid levels were determined by targeted LC-MS/MS, relative to external
standard curves. Results are mean ± SEM (n = 4) from one of two identical experiments.
Statistically significant results, based on two independent experiments, are as indicated in
Figure 2b-d. Raw data for these figures is provided in Supplementary Data File 1.

The mark [1] stands for this setting: HEK293 cells, 24 h, P053 300 nM.
Where [2] appears, read: P053 10 nM, replicates, raw data Suppl Fig 1.

Take `C[C@@](N)(CO)CCc1ccc(OCc2ccc(Cl)c(Cl)c2)cc1` [P053, (S)-2-amino-4-(4-(3,4-dichlorobenzyloxy)phenyl)-2-methylbutan-1-ol]: under setting [1], the “16:0 SM level” value was 91.5762 percentage of the vehicle control group and 97.3304 percentage of the vehicle control group and 95.7086 percentage of the vehicle control group and 90.4865 percentage of the vehicle control group and 94.7045 percentage of the vehicle control group and 94.6107 percentage of the vehicle control group and 97.4329 percentage of the vehicle control group; the “16:1 SM level” value is 95.4131 percentage of the vehicle control group and 93.1931 percentage of the vehicle control group and 97.1412 percentage of the vehicle control group and 89.2518 percentage of the vehicle control group and 106.305 percentage of the vehicle control group and 110.099 percentage of the vehicle control group and 114.576 percentage of the vehicle control group; the “18:0 Cer level” value is 21.4642 percentage of the vehicle control group and 24.1123 percentage of the vehicle control group and 20.5881 percentage of the vehicle control group and 19.7155 percentage of the vehicle control group and 31.2852 percentage of the vehicle control group and 28.1026 percentage of the vehicle control group and 22.7669 percentage of the vehicle control group; the “18:0 HexCer level” value is 20.413 percentage of the vehicle control group and 33.7976 percentage of the vehicle control group and 27.9895 percentage of the vehicle control group and 24.1749 percentage of the vehicle control group and 31.4424 percentage of the vehicle control group and 25.6474 percentage of the vehicle control group and 28.2273 percentage of the vehicle control group. For the same molecule, under setting [1], the “18:0 SM level” value is 51.9053 percentage of the vehicle control group and 55.6537 percentage of the vehicle control group and 52.9265 percentage of the vehicle control group and 58.2406 percentage of the vehicle control group and 58.0965 percentage of the vehicle control group and 68.5828 percentage of the vehicle control group; the “18:1 SM level” value was 49.0849 percentage of the vehicle control group and 55.9252 percentage of the vehicle control group and 57.6407 percentage of the vehicle control group and 49.9379 percentage of the vehicle control group and 59.4579 percentage of the vehicle control group and 65.5511 percentage of the vehicle control group and 62.889 percentage of the vehicle control group; the “20:0 Cer level” value is 93.6887 percentage of the vehicle control group and 101.721 percentage of the vehicle control group and 118.09 percentage of the vehicle control group and 85.7665 percentage of the vehicle control group and 100.615 percentage of the vehicle control group and 64.6288 percentage of the vehicle control group and 92.3762 percentage of the vehicle control group; the “20:0 SM level” value is 118.407 percentage of the vehicle control group and 108.075 percentage of the vehicle control group and 104.904 percentage of the vehicle control group and 101.736 percentage of the vehicle control group and 91.4298 percentage of the vehicle control group and 108.941 percentage of the vehicle control group and 75.5566 percentage of the vehicle control group. In addition, under setting [1], the “22:0 Cer level” value was 118.325 percentage of the vehicle control group and 95.8434 percentage of the vehicle control group and 96.1691 percentage of the vehicle control group and 93.2377 percentage of the vehicle control group and 117.011 percentage of the vehicle control group and 126.355 percentage of the vehicle control group and 127.853 percentage of the vehicle control group; the “22:0 HexCer level” value is 109.712 percentage of the vehicle control group and 101.896 percentage of the vehicle control group and 93.6786 percentage of the vehicle control group and 100.98 percentage of the vehicle control group and 134.335 percentage of the vehicle control group and 123.952 percentage of the vehicle control group and 138.922 percentage of the vehicle control group; the “22:0 SM level” value was 115.888 percentage of the vehicle control group and 97.5579 percentage of the vehicle control group and 89.8927 percentage of the vehicle control group and 119.666 percentage of the vehicle control group and 127.143 percentage of the vehicle control group and 125.883 percentage of the vehicle control group and 147.638 percentage of the vehicle control group; the “22:1 SM level” value was 108.27 percentage of the vehicle control group and 122.085 percentage of the vehicle control group and 110.7 percentage of the vehicle control group and 101.001 percentage of the vehicle control group and 122.515 percentage of the vehicle control group and 112.931 percentage of the vehicle control group and 116.965 percentage of the vehicle control group. Further, under setting [1], the “24:0 HexCer level” value is 104.713 percentage of the vehicle control group and 95.2413 percentage of the vehicle control group and 95.3365 percentage of the vehicle control group and 92.7673 percentage of the vehicle control group and 114.448 percentage of the vehicle control group and 102.627 percentage of the vehicle control group and 132.114 percentage of the vehicle control group; the “24:0 SM level” value was 113.274 percentage of the vehicle control group and 99.4416 percentage of the vehicle control group and 98.6316 percentage of the vehicle control group and 91.5407 percentage of the vehicle control group and 114.934 percentage of the vehicle control group and 115.44 percentage of the vehicle control group and 155.315 percentage of the vehicle control group; the “24:1 Cer level” value was 111.319 percentage of the vehicle control group and 96.194 percentage of the vehicle control group and 99.387 percentage of the vehicle control group and 100.62 percentage of the vehicle control group and 125.506 percentage of the vehicle control group and 116.048 percentage of the vehicle control group and 122.55 percentage of the vehicle control group; the “24:1 HexCer level” value was 99.7739 percentage of the vehicle control group and 98.9226 percentage of the vehicle control group and 100.626 percentage of the vehicle control group and 98.0727 percentage of the vehicle control group and 98.7766 percentage of the vehicle control group and 107.494 percentage of the vehicle control group and 117.137 percentage of the vehicle control group. Also, the “24:1 SM level” value under setting [1] is 105.1 percentage of the vehicle control group and 102.826 percentage of the vehicle control group and 108.435 percentage of the vehicle control group and 97.4023 percentage of the vehicle control group and 115.741 percentage of the vehicle control group and 108.576 percentage of the vehicle control group and 128.227 percentage of the vehicle control group. Also, under setting [2], the “Cer 18:1/16:0 content in HEK293 cells” value is 22.4895 and 20.1065 and 20.2227 and 20.5646; the “Cer 18:1/18:0 content in HEK293 cells” value was 6.1592 and 6.073 and 6.699 and 5.451; the “Cer 18:1/20:0 content in HEK293 cells” value was 0.6713 and 0.9209 and 0.7221 and 0.8599; the “Cer 18:1/22:0 content in HEK293 cells” value is 56.12 and 63.3729 and 65.2079 and 63.3152.
